Results: US10160771B2, “Hepatitis C virus inhibitors and uses thereof in preparation of drugs” (priority 2014, dated 2018)

What was measured:
[1] = Cell Titer-fluor cell activity assay in HCV-1b replicon cells (CC50); assay type: cell-based
Procedure, shortened: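 Con1 genotype 1b replicon cells (E1202G, T1280I, K1846T adaptive mutations), 8000 cells/well, exposed to 6-point 5-fold dilutions from 100, 10 or 1 nM top concentration in 0.5% DMSO, duplicate wells, 3 days at 37 °C. Viability read by Cell Titer-fluor (Ex 405/Em 515 nm) after 30 min; CC50 from nonlinear fit of inhibition %.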

[2] = system: HCV genotype 1a (HCV-1a) replicon cells; assay: HCV genotype 1a replicon luciferase assay (EC50); assay type: cell-based, hepatitis C virus genotype 1a (H77 clone); conditions: 3 days, luciferase (Bright-Glo)
Procedure, shortened: (§1)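 Compounds were dispensed as 5-fold, 6-point series (highest 100, 10 or 1 nM; 0.5% DMSO) in duplicate. Replicon cells expressing luciferase (H77-derived for 1a, Con1-derived for 1b) were added at 8000 per well and grown 3 days. Luciferase activity was then measured and EC50 fitted.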

[3] = system: HCV genotype 1b (HCV-1b) replicon cells; assay: HCV genotype 1b replicon luciferase assay (EC50); assay type: cell-based, hepatitis C virus genotype 1b (Con1 clone); conditions: Hepatitis C virus, 72 h, 3 days, luciferase (Bright-Glo)
Procedure, shortened: as §1

[4] = in vitro; assay type: cell-based; conditions: HCV 1a replicon cells, 3 days, Cell Titer-fluor
Description: The EC50 and CC50 values of anti-HCV compounds were determined by HCV genotype 1a (HCV-1a) and 1B (HCV-1b) stable transfer replication (replicon) cells. The source of genotype 1a replicon is H77 clones containing K1691R, K2040R and S2204I adaptive mutations. The source of genotype 1b replicon is Con1 clones containing E1202G, T1280I and K1846T adaptive mutations.
HCV Replicon Cell Lines: HCV-1a and HCV-1b Cells
The compound powder was dissolved in 100% DMSO. Then the compound was diluted 5 times with 6 points, and added into the cell plate with Echo liquid handler. Ensure the final concentration of DMSO was 0.5%. Each compound was tested in double holes. Maximum initial concentration was 100, 10 or 1 nM, 5 times dilution, 6 points.
b) Cell Culture (HCV-1a or HCV-1b Replicon Cell):
1) absorbing the culture supernatant of the cell culture and washing the cells with 10 mL PBS.
2) adding preheated pancreatin to the washed cell culture flasks, rotating culture bottle to make the bottom of the culture bottle uniformly covered by pancreatin, then placed into 37° C., 5% CO2 incubator to digest.
3) suspending cells in each T150 culture flask with 10-15 mL culture medium, absorbing 0.1 mL liquid and diluting 2 times by trypan blue solution as counted.
4) diluting cells to 8×10^4/mL with the culture medium, adding the diluted cells into the compound-containing 96-well plate (Greiner, Cat.#655090) (100 μL/well, 8000 cells/well) with automatic liquid separator (Thermo Scientific). Then place into a 37° C., 5% CO2 incubator for 3 days. Cell control well: no compound, only containing 0.5% DMSO.
5) adding chemiluminescent substrate Cell Titer-fluor to the cell well, after incubation for 30 minutes, detecting the signal by chemiluminescence detection system Envison (Ex at 405 nm and read at 515 nm). The effect of the compounds on the activity of HCV replicon cells was analyzed according to the luminescence data, which was used to calculate the CC50 values.
The EC50 or CC50 values were obtained by nonlinear fitting analysis on inhibition percentage (inh %) data with GraphPad Prism software.

SMILES | CC50 at 3 days [1] | EC50 ([2]; Hepatitis C virus, 72 h) | EC50 [3] | CC50 [4] | EC50 [2]
COC(=O)NC(C(=O)N1CCCC1c1ccc(-c2ccc(-c3ccc(-c4[nH]c(C5CCCN5C(=O)[C@H](NC(=O)OC)C(C)C)c5c4CCC5)cc3)cc2)[nH]1)C1CCOCC1 (some centres unmarked) [AG_038] | > 10 nM | 10 to 100 nM | 0.101 to 1 nM | > 100 nM | –
COC(=O)N[C@H](C(=O)N1CCCC1c1[nH]c(-c2ccc(-c3ccc(-c4cnc([C@@H]5CCCN5C(=O)[C@@H](NC(=O)OC)C(C)C)[nH]4)cc3)cc2)c2c1CCCC2)C(C)C (some centres unmarked) [AG_015] | > 10 nM | 10 to 100 nM | 0.001 to 0.1 nM | > 100 nM | –
COC(=O)NC(C(=O)N1CCCC1c1[nH]c(-c2ccc(-c3ccc(-c4cnc([C@@H]5CCCN5C(=O)[C@@H](NC(=O)OC)C(C)C)[nH]4)cc3)cc2)c2c1CCCC2)C1CCOCC1 (some centres unmarked) [AG_040] | > 10 nM | 10 to 100 nM | 0.101 to 1 nM | > 100 nM | –
COC(=O)NC(C(=O)N1CCCC1c1[nH]c(-c2ccc(-c3ccc(-c4cnc([C@@H]5CCCN5C(=O)C(NC(=O)OC)C5CCOCC5)[nH]4)cc3)cc2)c2c1CCC2)C1CCOCC1 (some centres unmarked) [AG_042] | > 100 nM | 1 to 10 nM | 0.101 to 1 nM | > 100 nM | –
COC(=O)NC(C(=O)N1CCC[C@H]1c1ncc(-c2ccc(-c3ccc(-c4[nH]c(C5CCCN5C(=O)[C@@H](NC(=O)OC)C(C)C)c5c4CCC5)cc3)cc2)[nH]1)C1CCOC1 (some centres unmarked) [AG_049] | > 100 nM | 10 to 100 nM | 0.001 to 0.1 nM | > 100 nM | –
COC(=O)NC(C(=O)N1CCC[C@H]1c1ncc(-c2ccc(-c3ccc(-c4[nH]c(C5CCCN5C(=O)[C@@H](NC(=O)OC)C(C)C)c5c4CCC5)cc3)cc2)[nH]1)C1CCOC(C)C1 (some centres unmarked) [AG_050] | > 100 nM | 1 to 10 nM | 0.001 to 0.1 nM | > 100 nM | –
COC(=O)N[C@H](C(=O)N1CCC[C@H]1c1ncc(-c2ccc(-c3ccc(-c4ccc(C5CCCN5C(=O)[C@@H](NC(=O)OC)C5CCOCC5)[nH]4)cc3)cc2)[nH]1)C(C)C (some centres unmarked) [AG_037] | > 10 nM | 0.101 to 1 nM | 0.001 to 0.1 nM | > 100 nM | –
COC(=O)N[C@H](C(=O)N1CCC[C@H]1c1[nH]c(-c2ccc(-c3ccc(-c4cnc([C@@H]5CCCCN5C(=O)[C@@H](NC(=O)OC)[C@@H](C)OC)[nH]4)cc3)cc2)c2c1COC2)C(C)OC (some centres unmarked) [AG_124] | > 1 nM | 0.101 to 1 nM | 0.001 to 0.1 nM | > 100 nM | –
COC(=O)N[C@H](C(=O)N1CCCC1c1ccc(-c2ccc(-c3ccc(-c4cnc([C@@H]5CCCN5C(=O)[C@@H](NC(=O)OC)C5CCOC(C)C5)[nH]4)cc3)cc2)[nH]1)C(C)C (some centres unmarked) [AG_053] | > 100 nM | 1 to 10 nM | 0.101 to 1 nM | > 100 nM | –
COC(=O)NC(C(=O)N1CCC[C@H]1c1ncc(-c2ccc(-c3ccc(-c4[nH]c(C5CCCN5C(=O)[C@@H](NC(=O)OC)C(C)C)c5c4CCC5)cc3)cc2)[nH]1)C1CCOCC1 (some centres unmarked) [AG_035] | > 10 nM | 10 to 100 nM | 0.001 to 0.1 nM | > 100 nM | –
COC(=O)N[C@H](C(=O)N1CCC[C@H]1c1ncc(-c2ccc(-c3ccc(-c4ccc(C5CCCN5C(=O)[C@@H](NC(=O)OC)C(C)C)[nH]4)cc3)cc2)[nH]1)c1ccccc1 (some centres unmarked) [AG_052] | > 100 nM | 1 to 10 nM | 0.001 to 0.1 nM | > 100 nM | –
COC(=O)NC(C(=O)N1CCC[C@H]1c1ncc(-c2ccc3cc(-c4ccc(-c5[nH]c(C6CCCN6C(=O)[C@@H](NC(=O)OC)C(C)C)c6c5CCC6)cc4)ccc3c2)[nH]1)C1CCOCC1 (some centres unmarked) [AG_051] | > 100 nM | 1 to 10 nM | 0.101 to 1 nM | > 100 nM | –
COC(=O)NC(C(=O)N1CCCC1c1[nH]c(-c2ccc(-c3ccc(-c4cnc([C@@H]5CCCN5C(=O)C(NC(=O)OC)C5CCOCC5)[nH]4)cc3)cc2)c2c1CCCC2)C1CCOCC1 (some centres unmarked) [AG_045] | > 100 nM | 10 to 100 nM | 0.101 to 1 nM | > 100 nM | –
COC(=O)N[C@H](C(=O)N1CCCC1c1ccc(-c2ccc(-c3ccc(-c4cnc([C@@H]5CCCN5C(=O)[C@@H](NC(=O)OC)C(C)C)[nH]4)cc3)cc2)[nH]1)C(C)C (some centres unmarked) [AG_001] | > 1 nM | 1 to 10 nM | 0.001 to 0.1 nM | > 10 nM | –
COC(=O)NC(C(=O)N1CCC[C@H]1c1ncc(-c2ccc(-c3ccc(-c4[nH]c(C5CCCN5C(=O)[C@@H](NC(=O)OC)C(C)C)c5c4CCCC5)cc3)cc2)[nH]1)C1CCOC1 (some centres unmarked) [AG_046] | > 100 nM | 10 to 100 nM | 0.101 to 1 nM | > 100 nM | –
COC(=O)N[C@H](C(=O)N1CCCC1c1ncc(-c2ccc3cc(-c4ccc(-c5[nH]c(C6CCCN6C(=O)[C@@H](NC(=O)OC)C(C)C)c6c5CCC6)cc4)ccc3c2)[nH]1)C(C)C (some centres unmarked) [AG_048] | > 100 nM | 10 to 100 nM | 0.101 to 1 nM | > 100 nM | –
COC(=O)NC(C(=O)N1CCC[C@H]1c1ncc(-c2ccc(-c3ccc(-c4[nH]c(C5CCCN5C(=O)[C@@H](NC(=O)OC)C(C)C)c5c4CCCC5)cc3)cc2)[nH]1)C1CCOC(C)C1 (some centres unmarked) [AG_047] | > 100 nM | 10 to 100 nM | 0.101 to 1 nM | > 100 nM | –
COC(=O)N[C@H](C(=O)N1CCC[C@H]1c1ncc(-c2ccc(-c3ccc(-c4cnc([C@H]5C6CCC(C6)[C@@H]5C(=O)NC(CO)c5ccccn5)[nH]4)cc3)cc2)[nH]1)C(C)C (some centres unmarked) [AA_243_A] | > 1 nM | 10 to 100 nM | 0.001 to 0.1 nM | – | –
COC(=O)N[C@H](C(=O)N1CCC[C@H]1c1ncc(-c2ccc(-c3ccc(-c4cnc(C5CCCC[C@@H]5C(=O)N(NC(=O)OC)C(C)C)[nH]4)cc3F)cc2)[nH]1)C(C)C (some centres unmarked) [AA_117] | > 10 nM | 10 to 100 nM | 0.101 to 1 nM | – | –
COC(=O)N[C@H](C(=O)N1CCCC1c1ccc(-c2ccc(-c3ccc(-c4cnc([C@@H]5CCCN5C(=O)[C@@H](NC(=O)OC)C5CCOC5)[nH]4)cc3)cc2)[nH]1)C(C)C (some centres unmarked) [AG_054] | > 10 nM | 0.101 to 1 nM | 0.001 to 0.1 nM | – | –
COC(=O)N[C@H](C(=O)N1CCC[C@H]1c1ncc(-c2ccc(-c3ccc(-c4cnc([C@@H]5C6CCC(C6)[C@H]5C(=O)NCc5cccnc5)[nH]4)cc3)cc2C)[nH]1)C(C)C (some centres unmarked) [AA_211_B] | > 1 nM | 1 to 10 nM | 0.001 to 0.1 nM | – | –
COC(=O)N[C@H](C(=O)N1CCC[C@H]1c1ncc(-c2ccc3c(c2)C(F)(F)c2cc(-c4cnc(C5C6CCC(C6)[C@H]5C(=O)NCc5cccnc5)[nH]4)ccc2-3)[nH]1)C(C)C (some centres unmarked) [AA_238] | > 1 nM | 1 to 10 nM | 0.001 to 0.1 nM | – | –
COC(=O)N[C@H](C(=O)N1CCC[C@H]1c1ncc(-c2ccc(-c3ccc(-c4cnc([C@H]5C6CCC(C6)[C@@H]5C(=O)NC(C)c5cccnc5)[nH]4)cc3)cc2)[nH]1)C(C)C (single isomer, unassigned) [AA_204_A] | > 1 nM | – | 0.001 to 0.1 nM | – | 0.101 to 1 nM
COC(=O)N[C@H](C(=O)N1CCC[C@H]1c1ncc(-c2ccc(-c3ccc(-c4cnc(C5C6CCC(C6)[C@@H]5C(=O)Nc5ccccc5)[nH]4)cc3)cc2)[nH]1)[C@@H](C)OC (some centres unmarked) [AA_246_A] | > 1 nM | 10 to 100 nM | 0.001 to 0.1 nM | – | –
COC(=O)N[C@H](C(=O)N1CCC[C@H]1c1ncc(-c2ccc(-c3ccc(-c4cnc(C5C6CCC(C6)[C@H]5C(=O)NCc5ccc(OC)nc5)[nH]4)cc3)cc2)[nH]1)[C@@H](C)OC (some centres unmarked) [AA_223_A] | > 1 nM | 10 to 100 nM | 0.101 to 1 nM | – | –
COC(=O)N[C@H](C(=O)N1CCC[C@H]1c1ncc(-c2ccc(-c3ccc(-c4cnc([C@H]5C6CCC(C6)[C@@H]5C(=O)N(C)c5ccccn5)[nH]4)cc3)cc2)[nH]1)C(C)C (some centres unmarked) [AA_195_A] | > 1 nM | 0.101 to 1 nM | 0.001 to 0.1 nM | – | –
COC(=O)N[C@H](C(=O)N1CCC[C@H]1c1ncc(-c2ccc(-c3ccc(-c4cnc(C5C6CCC(C6)[C@@H]5C(=O)NCc5cccnc5SC)[nH]4)cc3)cc2)[nH]1)[C@@H](C)OC (some centres unmarked) [AA_259_A] | > 1 nM | 10 to 100 nM | 0.001 to 0.1 nM | – | –
